According to patent US20210093637A1, “TOPICAL OINTMENT FORMULATIONS OF PDE-4 INHIBITOR AND THEIR USE IN TREATING SKIN CONDITIONS” (Dermavant Sciences GmbH, priority 2017, published 2021):

Columns and labels:
[1] = tested on: NC/Nga mice; test: Prophylactic study in DNCB-induced atopic dermatitis NC/Nga mice (treatment days 1-14); format: in vivo, mouse; settings: skin sections day 15
From the text: (§1) Atopic dermatitis (AD) was induced in specific pathogen-free (SPF) female NC/Nga mice (n=8/group), 8-12 weeks old, by repeated percutaneous applications of dinitrochlorobenzene (DNCB) to the dorsal skin of the ears and back on days 4, 7, 10, and 13. NC/Nga mice are an established mouse model for atopic dermatitis. See Suto et al. NC/Nga mice: a mouse model for atopic dermatitis; Int Arch Allergy Immunol. 1999; 120 Suppl 1:70-5; and Gao et al., Establishment of allergic dermatitis in NC/Nga mice as a model for severe atopic dermatitis, Biol. Pharm. Bull. 2004 September; 27(9): 1376-81.
(§2) A prophylactic study and a therapeutic study was conducted: • 1. Prophylactic study: 0.2% formulation (C1), 0.5% formulation (C2), RVT-501 placebo, tacrolimus placebo, 0.1% tacrolimus, or no treatment (AD control) on days 1-14 or sham-induction of AD. • 2. Therapeutic study: 0.2% formulation (C1), 0.5% formulation (C2), active ingredient placebo, tacrolimus placebo, 0.1% tacrolimus, or no treatment (AD control) on days 8-14.
(§3) Scratching assays were performed on days 2, 8, 11, 14 in both studies. Skin samples were harvested for histopathology and cytokine analysis on day 15. Histopathology of sham-induced versus DNCB-induced mouse skin indicates clear presence of atopic dermatitis.

[2] = tested on: NC/Nga mice; test: Therapeutic study in DNCB-induced atopic dermatitis NC/Nga mice (treatment days 8-14); format: in vivo, mouse
From the text: as §1, §2, §3

SMILES: C=CC[C@@H]1/C=C(\C)C[C@H](C)C[C@H](OC)[C@H]2O[C@@](O)(C(=O)C(=O)N3CCCC[C@H]3C(=O)O[C@H](/C(C)=C/[C@@H]3CC[C@@H](O)[C@H](OC)C3)[C@H](C)[C@@H](O)CC1=O)[C@H](C)C[C@@H]2OC [0.1% tacrolimus, tacrolimus]
- AD lesions induced by DNCB at the microscopic level [1]: attenuated AD lesions
- scratching ([2]; day 14): significant decrease in scratching
- IL-1α, IL-1β, IL-4, IL-5, IL-10, IL-12(p40), IL-13, eotaxin, GM-CSF, KC, MCP-1, MIP-1α, MIP-1β, RANTES, and TNF-α in skin ([2]; day 15): significantly decreased
- AD lesion severity ([2]; skin sections day 15): trended toward a reduction
